Reference: patent publication US20250271361A1, “SUPERCONTINUUM INTRINSIC FLUORESCENCE IMAGING” (The Board of Trustees of the University of Illinois, priority 2024, published 2025)

Tests used:
[1] = system: hamster kidney fibroblast cells BHK-21; assay: SCIFI/SOMI endpoint (snapshot) imaging assay of in vitro hamster kidney cells treated with a drug or imaging agent; type: cell-based, Syrian golden hamster
Experimental: Next, the interaction between in vitro hamster kidney cells with a drug or imaging agent were evaluated.
Power-dependent “imaging” experiments were conducted on the prepared solutions and coverslip across the six colors by an excitation that would be standardized for biological imaging. […] For the 6-color SOMI images (1024×1024 pixels) collected from a biological sample, the raw intensity image of each color was converted into a photon-count image (unit: photon/pulse) using the established (calibrated) relation for that color at the same photomultiplier gain. Then, some (2-72) discernable single cells or cell clusters were manually segmented in the 6-color photon-count images. Finally, the SOMI intensity profiles of segmented single cells (or cell clusters) averaged over the corresponding pixels were obtained after a background subtraction. Specifically, the background of the culture medium in the empty space among the segmented cells was subtracted for 2D cell culture samples while the background with blocked illumination was subtracted for all 3D (tissue) samples.
In contrast to reductionism-based imaging, the lack of FLIM capability for general fluorescence imaging presented another challenge that may have contributed to the low popularity of comparative systems biology-based imaging strategies. Due to the high dynamic range of SOMI in gentle biological imaging, comparative photon counting of FLIM with low dynamic range (<0.2 photon/pulse, typically) cannot be used. To recover this capability, time-resolved photon counts were determined using computational photon counting, which provides single-photon accuracy for signals with high dynamic range. The output of three analog output photomultipliers for 4PAF, 3PAF, and 2PAF was optionally amplified with a high-speed transimpedance amplifier (C5594, Hamamatsu), and digitized at 2 GS/s with a high-speed digitizer (ATS9373, AlazarTech). Digitized values were saved, and photon-counting and lifetime information was computed in post-processing using custom MATLAB scripts (Mathworks). FLIM for the 2PAF and 3PAF colors were validated using NADH, FAD, and other standard dyes. To calibrate computational photon counting for 4PAF, Trp solutions from 0 to 50 mM were examined and a single-photon peak threshold was determined based on the peak height histogram to ensure a linear relationship between intensity and concentration over this range. After computational photon counting, mean fluorescence lifetime and phasor components g and s were determined by phasor analysis. For single-cell quantification, all fluorescence decays within a segmented cell were summed together, and one mean fluorescence lifetime was estimated from the total decay, along with one g and one s value.
(§1) In the above experiments (e.g., in the procedures used to generate the images described above), the following materials and methods were provided or performed. Adherent Syrian golden hamster kidney fibroblast cells BHK-21 (clone 13, ATCC CCL-10) were cultured in phenol red-free Eagle's Minimum Essential Medium (EMEM) supplemented with 10% FBS, 1% penicillin-streptomycin-amphotericin B (PSA), and 2.5 mM L-Glutamine at 37° C. under 5% CO2, and atmospheric O2 conditions. Before imaging, 1 mL of trypsinized cells was resuspended in 1 mL of 1×TrypLE™ Select Enzyme cell dissociation reagent (TFS, Cat #12563029). The cells were plated on poly-D-lysine coated 35-mm diameter glass-bottom imaging dishes and maintained inside a humidified incubator with 5% CO2 and 21% O2 conditions at 37° C. The incubation time varied between 1-6 hours while the culture media might be supplemented with specific drugs or labeling agents at […] concentrations. The cells were imaged within 10 min of being taken out of the incubator.

live BHK-21 cells [2] = assay: time-lapse kinetic imaging assay (single-cell pharmacokinetic SOMI) of hamster kidney cells after transient exposure; details: for cellular uptake by endocytosis via THG-visible nanovesicles: comparative kinetic assays of two mitochondrial uncouplers
Experimental: as §1
Large area or 3D SOMI was enabled by a motorized sample stage. Without moving the stage, time-lapse imaging of dynamic phenomenon or frame-averaged imaging of static samples were conducted in a constant field-of-view. Single-cell pharmacokinetics imaging was performed in a time-lapse SOMI of 200-frame period at the center of a 35-mm diameter glass-bottom imaging culture dish with 2 mL culture media of live BHK-21 cells. During the imaging near the 50-frame timepoint, 0.1 mL of preprepared concentrated solution of a drug (BAM15/FCCP) or labeling agent (AP3) was injected in ˜1 s by a mounted pipette into the center of the dish, attaining an ending/equilibrium concentration of […]. The fluorescence from AP3 in a segmented empty space among the cells was used to detect the transient concentration profile of injected drugs and labeling agents during the time-lapse imaging.

live BHK-21 cells [3] = details: statement of general knowledge, explained by the kinetic assay; cited from earlier work
[4] = apoptotic hamster kidney cells, endpoint assay

SMILES | LFI (lipofuscin fluorescence independence extent) ([1]; in vitro hamster kidney cells, endpoint assay, control 32%) [%] | cytotoxicity sensed in real-time by 4PIF (live BHK-21 cells [2]; at a high concentration, transient exposure) | rise in FAD* coinciding with sudden decrease in ETC (live BHK-21 cells [2]; both BAM15 concentrations, kinetic assay) [fold] | induced FAD* in cytoplasm, BAM15 compared with FCCP (live BHK-21 cells [2]; comparative kinetic assays) | cellular uptake by endocytosis via THG-visible nanovesicles (live BHK-21 cells [2]) | toxicity in mitochondrial uncoupling, compared with FCCP (live BHK-21 cells [3]) | LFI versus treatment-free control [1, 4] | ORR (optical redox ratio) versus treatment-free control [1, 4] | LFR (LOP-to-FAD ratio) ([1]; in vitro STS-induced apoptosis confirmed by single-cell morphological change) | apoptosis via modified cell morphology ([1]; in vitro hamster kidney cells, endpoint assay, different fields) | 3PIF (NADH) in 6-color profile ([1]; in vitro hamster kidney cells, label-free biomarker of apoptosis) | color through which cells respond (live BHK-21 cells [2]; transient exposure, kinetic assay) [PIF/NADH but not THG]
Fc1ccccc1Nc1nc2nonc2nc1Nc1ccccc1F [BAM15] | 44 | confirmed | ~10 | surprisingly larger | might enable cellular uptake | less toxic than FCCP |  |  |  |  |  | 
N#CC(C#N)=NNc1ccc(OC(F)(F)F)cc1 [FCCP] |  |  |  |  | not |  |  |  |  |  |  | 
CN[C@@H]1C[C@H]2O[C@@](C)([C@@H]1OC)n1c3ccccc3c3c4c(c5c6ccccc6n2c5c31)C(=O)NC4 [STS, staurosporine] |  |  |  |  |  |  | retained a low LFI | reduced ORR | increase in LFR | induced apoptosis | peaked | 3
